Patent US20250163056A1, “NONMUSCLE MYOSIN II INHIBITORS” (The University of Florida Research Foundation, Inc., priority 2018, published 2025)

Tests used:
[1] = Photostability, percentage remaining undegraded under illumination or in the dark; details: for Photostability 4 hours: percentage remaining undegraded after 4 hours illumination; for Photostability 24 hours: percentage remaining undegraded after 24 hours illumination; for Photostability Dark (24 h): percentage remaining undegraded in the dark
Rabbit skeletal myosin = assay: Skeletal muscle myosin II actin-activated ATPase assay; format: biochemical; details: 20 nM skeletal muscle myosin II; read-out: SKMMII KI
From the text: (§1) The cardiac muscle myosin II actin-activated ATPase assay is a biochemical assay. Specifically, it is an NADH (nicotinamide adenine dinucleotide)-coupled ATPase assay that relies on NADH fluorescence as a readout. Cardiac myosin is a mechanochemical energy transducer that hydrolyzes ATP to generate force in the presence of its activator, F-actin. The resulting ADP is regenerated to ATP by pyruvate kinase (PK) that transforms one molecule of phosphoenolpyruvate (PEP) to pyruvate in parallel. Subsequently, pyruvate is reduced to lactate by lactate dehydrogenase (LDH) that, in turn, oxidizes one molecule of NADH to NAD. Therefore, the decrease in NADH concentration as a function of time equals the ATP hydrolysis rate. Bovine cardiac myosin is obtained from a commercial source, Cytoskeleton. PK, LDH, ATP, PEP, and NADH are obtained from Sigma. F-actin is prepared in house from Rabbit Muscle Acetone Powder. The assay is run at 25° C. in 384 well black-wall polystyrene microplates with a total volume of 20 μl per well. NADH fluorescence is monitored for 30 minutes with an EnVision Multimode Plate Reader. The slope of the fluorescence response, which is proportional to the reaction rate, is determined by simple linear regression. Final assay conditions are 300 nM cardiac myosin, 10 μM actin, 40 U/ml LDH, 200 U/ml PK, 220 μM NADH, 1 mM PEP, 1 mM ATP in a buffer containing 10 mM 3-(N-morpholino)propanesulfonic acid (pH=7.0), 2 mM MgCl2, 0.15 mM ethylene glycol-bis(p-aminoethyl ether)-N,N,N′,N′-tetraacetic acid, 0.1 mg/mL bovine serum albumin, 0.5% (V/V) dimethyl sulfoxide (DMSO) and 1 mM dithiothreitol. Prior to testing the inhibitory activity of the compounds, a two-fold dilution series starting at 10 mM compound concentration is prepared in DMSO. Subsequently, 100 nl is transferred to each well of the measuring plate containing a mixture of myosin, LDH and PK. The enzymatic reaction is started with the addition of a mixture containing ATP, PEP, NADH and actin. The highest final compound concentration is 50 uM. 20 μM para-aminoblebbistatin in 0.5% DMSO serves as the positive control and 0.5% DMSO alone is the negative control. Reaction rates are determined by using the fluorescence responses of a dilution series of NADH included in all plates and plotted as a function of inhibitor concentration. All measurements are carried out in triplicate. Inhibitory constants are determined by fitting the 16 point dose-response data to a quadratic equation corresponding to a simple one-to-one binding model.
The skeletal muscle myosin II actin-activated ATPase assay is performed the same as for cardiac muscle myosin II with the following exceptions: Rabbit skeletal myosin is obtained from Cytoskeleton and the final assay conditions contain 20 nM skeletal muscle myosin II.

Bovine cardiac myosin = Bovine cardiac myosin (Bos taurus (Bovine), UniProt Q9BE39); assay: Cardiac muscle myosin II actin-activated ATPase assay (NADH-coupled); format: biochemical; set-up: key to Ratio CMMII:NMII Ki/EC50: NMII-sel: no Ki value for cardiac myosin II could be determined; the compounds had no detectable inhibitory properties versus the cardiac myosin II; details: for Ki: 300 nM cardiac myosin, 10 μM actin, 25° C., read-out: CMMII KI; for Ratio CMMII:NMII Ki/EC50: cardiac myosin II Ki over nonmuscle myosin II EC50
Sequence of Bovine cardiac myosin (Q9BE39 whole entry): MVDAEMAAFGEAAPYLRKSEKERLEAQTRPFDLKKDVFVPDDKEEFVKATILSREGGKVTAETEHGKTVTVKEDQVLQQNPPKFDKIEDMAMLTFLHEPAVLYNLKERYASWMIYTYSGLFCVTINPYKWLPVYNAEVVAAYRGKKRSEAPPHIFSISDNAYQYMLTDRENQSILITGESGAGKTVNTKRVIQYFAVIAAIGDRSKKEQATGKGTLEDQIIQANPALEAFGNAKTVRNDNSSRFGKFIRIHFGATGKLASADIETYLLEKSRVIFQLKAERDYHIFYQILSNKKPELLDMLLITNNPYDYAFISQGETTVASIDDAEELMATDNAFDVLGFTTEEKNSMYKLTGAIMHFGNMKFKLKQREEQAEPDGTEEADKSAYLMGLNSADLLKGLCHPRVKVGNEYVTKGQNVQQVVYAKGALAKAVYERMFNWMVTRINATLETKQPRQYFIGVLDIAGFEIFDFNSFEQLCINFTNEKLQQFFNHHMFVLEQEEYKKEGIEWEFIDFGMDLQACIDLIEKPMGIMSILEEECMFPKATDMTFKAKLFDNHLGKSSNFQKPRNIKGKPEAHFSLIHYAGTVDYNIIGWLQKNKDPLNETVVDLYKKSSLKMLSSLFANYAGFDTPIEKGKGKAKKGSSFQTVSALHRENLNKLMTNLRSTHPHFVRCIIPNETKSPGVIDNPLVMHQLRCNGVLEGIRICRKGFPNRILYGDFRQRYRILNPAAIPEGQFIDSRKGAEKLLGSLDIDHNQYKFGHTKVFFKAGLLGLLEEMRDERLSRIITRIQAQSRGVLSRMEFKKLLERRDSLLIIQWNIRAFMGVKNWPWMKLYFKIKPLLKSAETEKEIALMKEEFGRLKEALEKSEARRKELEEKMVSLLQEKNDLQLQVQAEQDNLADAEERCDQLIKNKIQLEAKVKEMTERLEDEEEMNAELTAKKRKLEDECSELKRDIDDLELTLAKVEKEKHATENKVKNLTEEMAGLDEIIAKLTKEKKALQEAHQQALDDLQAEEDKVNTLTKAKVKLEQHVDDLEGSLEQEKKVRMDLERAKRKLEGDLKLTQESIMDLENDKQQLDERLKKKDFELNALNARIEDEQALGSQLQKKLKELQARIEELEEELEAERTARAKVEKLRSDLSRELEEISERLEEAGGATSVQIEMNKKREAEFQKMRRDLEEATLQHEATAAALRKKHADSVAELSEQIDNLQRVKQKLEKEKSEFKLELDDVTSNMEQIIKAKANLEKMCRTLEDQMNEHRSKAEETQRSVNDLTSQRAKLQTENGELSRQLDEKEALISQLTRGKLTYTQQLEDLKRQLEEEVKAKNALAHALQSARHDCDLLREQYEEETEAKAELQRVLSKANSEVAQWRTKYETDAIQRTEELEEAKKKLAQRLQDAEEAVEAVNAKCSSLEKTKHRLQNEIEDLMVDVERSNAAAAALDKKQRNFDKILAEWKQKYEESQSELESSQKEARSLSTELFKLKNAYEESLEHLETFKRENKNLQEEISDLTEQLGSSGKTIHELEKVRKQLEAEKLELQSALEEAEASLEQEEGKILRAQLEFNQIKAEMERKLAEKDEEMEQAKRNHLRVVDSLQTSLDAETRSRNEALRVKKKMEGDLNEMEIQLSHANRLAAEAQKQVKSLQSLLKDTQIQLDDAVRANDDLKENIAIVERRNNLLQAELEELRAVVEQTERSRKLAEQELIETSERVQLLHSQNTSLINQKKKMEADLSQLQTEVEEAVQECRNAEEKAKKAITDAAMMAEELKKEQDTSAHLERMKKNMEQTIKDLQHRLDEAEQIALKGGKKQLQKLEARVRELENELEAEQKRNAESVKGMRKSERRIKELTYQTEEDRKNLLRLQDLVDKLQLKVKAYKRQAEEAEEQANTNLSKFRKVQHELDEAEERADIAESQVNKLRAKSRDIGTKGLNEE
Sequence of Bovine cardiac myosin (P85100 whole entry partner): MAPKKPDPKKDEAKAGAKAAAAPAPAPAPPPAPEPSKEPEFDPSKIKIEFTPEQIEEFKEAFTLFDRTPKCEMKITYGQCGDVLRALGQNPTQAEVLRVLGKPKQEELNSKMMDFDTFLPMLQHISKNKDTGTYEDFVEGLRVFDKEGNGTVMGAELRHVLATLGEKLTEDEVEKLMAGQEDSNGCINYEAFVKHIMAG
Sequence of Bovine cardiac myosin (Q3SZE5 whole entry partner): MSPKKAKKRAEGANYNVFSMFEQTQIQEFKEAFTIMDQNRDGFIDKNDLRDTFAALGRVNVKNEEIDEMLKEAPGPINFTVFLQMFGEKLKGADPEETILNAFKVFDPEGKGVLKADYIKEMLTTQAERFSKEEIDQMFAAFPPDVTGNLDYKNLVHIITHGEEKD
From the text: as §1

| Compound | Photostability 4 hours [1] | Photostability 24 hours [1] | Photostability Dark (24 h) [1] | Ki (Rabbit skeletal myosin) | Ki (Bovine cardiac myosin) | Ratio CMMII:NMII Ki/EC50 (Bovine cardiac myosin) |
| --- | --- | --- | --- | --- | --- | --- |
| O=C1c2cc(Cl)ccc2N=C2N(c3ccc(Cl)cc3)CC[C@@]12O [BPN-0026640] | 71.1% | 17.8% | 96.8% | 0.53 µM | 8 µM | 4.0 |
| O=C1c2cc(Cl)c(Cl)cc2N=C2N(c3ccccc3)CC[C@@]12O [BPN-0026643] | 64.0% | <1% | 85.1% | 1.9 µM | 17 µM | 3.5 |
| Cc1cc2c(cc1C(F)(F)F)N=C1N(c3ccccc3)CC[C@@]1(O)C2=O [BPN-0026648] | 94.3% | 84.3% | 97.7% | 4.5 µM | 56 µM | 11.9 |
| Cc1ccc2c(c1)C(=O)[C@]1(O)CCN(c3ccc4ccsc4c3)C1=N2 [BPN-0026650] | 80.5% | 5.5% | >99% | 4.3 µM | – | NMII-sel |
| Cc1ccc2c(c1)C(=O)[C@]1(O)CCN(c3ccc4sccc4c3)C1=N2 [BPN-0026651] | 73.0% | 5.8% | 97.5% | 3.9 µM | – | NMII-sel |
| Cc1cc2c(cc1Cl)C(=O)[C@]1(O)CCN(c3ccccc3)C1=N2 [BPN-0026659] | 72.1% | 17.9% | 91.1% | 0.93 µM | 9 µM | 3.5 |
| Cc1cc2c(cc1C)C(=O)[C@]1(O)CCN(c3cccc(Br)c3)C1=N2 [BPN-0026660] | 87.4% | 7.6% | 93.8% | 33 µM | – | NMII-sel |
| Cc1cc2c(cc1C)C(=O)[C@]1(O)CCN(c3ccc(C#N)c(C)c3)C1=N2 [BPN-0026661] | 95.5% | 65.4% | 98.2% | 2.2 µM | 53 µM | 22.1 |
| Cc1cc2c(cc1C)C(=O)[C@]1(O)CCN(c3ccc(Cl)cc3)C1=N2 [BPN-0026662] | 85.4% | 7.5% | >99% | 0.19 µM | 6 µM | 5.5 |
| Cc1ccc(N2CC[C@@]3(O)C(=O)c4cc(C)c(C)cc4N=C23)cc1 [BPN-0026663] | 40.7% | 2.0% | 97.3% | 0.12 µM | 2.8 µM | 3.5 |
| Cc1cc2c(cc1C)C(=O)[C@]1(O)CCN(c3ccc4ccoc4c3)C1=N2 [BPN-0026664] | 30.3% | <1% | 97.7% | 1.5 µM | 29 µM | 33.3 |
| COc1ccc(N2CC[C@@]3(O)C(=O)c4cc(C)c(C)cc4N=C23)cc1 [BPN-0026665] | 2.7% | <1% | 97.4% | 0.14 µM | 4.2 µM | 6.7 |
| Cc1ncc(N2CC[C@@]3(O)C(=O)c4cc(F)c(C(F)(F)F)cc4N=C23)s1 [BPN-0026667] | 85.7% | 2.9% | >99% | 0.33 µM | 6.2 µM | 5.2 |
| Cc1cc2c(cc1F)C(=O)[C@]1(O)CCN(c3ccccc3)C1=N2 [BPN-0026669] | 87.8% | 11.2% | >99% | 1.2 µM | 25 µM | 4.7 |
| Cc1ncc(N2CC[C@@]3(O)C(=O)c4cc(C)c(C)cc4N=C23)s1 [BPN-0026693] | 34.1% | 1.7% | >99% | 0.27 µM | 3.5 µM | 6.0 |
| Cc1cc2c(cc1C)C(=O)[C@]1(O)CCN(c3cccs3)C1=N2 [BPN-0026708] | 40.7% | <1% | >99% | 1.4 µM | 5.3 µM | 3.1 |
| COc1cc(N2CC[C@@]3(O)C(=O)c4cc(C)c(C)cc4N=C23)ccn1 [BPN-0026709] | 98.7% | 93.0% | 98.2% | 1.3 µM | 30.6 µM | 25.5 |
| Cc1cc2c(cc1C)C(=O)[C@]1(O)CCN(c3cnn(C)c3)C1=N2 [BPN-0026710] | 6.6% | <1% | >99% | 0.95 µM | 5.2 µM | 3.1 |
| Cc1cc2cc(N3CC[C@@]4(O)C(=O)c5cc(F)c(C)cc5N=C34)ccc2o1 [BPN-0026726] | 76.3% | 24.1% | 95.4% | 4.4 µM | – | NMII-sel |
| COc1cc(N2CC[C@@]3(O)C(=O)c4cc(F)c(C)cc4N=C23)ccn1 [BPN-0026745] | >99% | 94.2% | >99% | 2.6 µM | 73 µM | 25.2 |
| Cc1cc2c(cc1F)C(=O)[C@]1(O)CCN(c3cnn(C)c3)C1=N2 [BPN-0026746] | 58.8% | 10.6% | >99% | 3.6 µM | 17 µM | 3.8 |
| Cc1cc2c(cc1F)C(=O)[C@]1(O)CCN(c3cccs3)C1=N2 [BPN-0026748] | 88.2% | 22.4% | >99% | 2.6 µM | 14 µM | 4.7 |
